{"source": "paper PMC5810560", "about": "(Chemico-biological interactions, 2017)", "origin": "cited, not measured here", "conditions": "rats, brain homogenates, 50 μmol IM exposure; ref Petroianu et al., 2007; cited from earlier work"}
{"smiles": "C[n+]1ccccc1/C=N/O", "note": "[2-PAM, pralidoxime chloride]", "values": [{"measurement": "brain/plasma ratio", "result": 0.056}]}
